1 compound from patent US8101621B2, “Aminopyridine derivatives having aurora a selective inhibitory action” (MSD K.K., priority 2006, dated 2012) can be followed below.

One assay has as its target T1, Aurora A (Homo sapiens, UniProt O14965).
T1 construct: histidine tag (N); made in house; host or cells: Escherichia coli BL21-CodonPlus (DE3)-RIL
T1 sequence (O14965 1-403): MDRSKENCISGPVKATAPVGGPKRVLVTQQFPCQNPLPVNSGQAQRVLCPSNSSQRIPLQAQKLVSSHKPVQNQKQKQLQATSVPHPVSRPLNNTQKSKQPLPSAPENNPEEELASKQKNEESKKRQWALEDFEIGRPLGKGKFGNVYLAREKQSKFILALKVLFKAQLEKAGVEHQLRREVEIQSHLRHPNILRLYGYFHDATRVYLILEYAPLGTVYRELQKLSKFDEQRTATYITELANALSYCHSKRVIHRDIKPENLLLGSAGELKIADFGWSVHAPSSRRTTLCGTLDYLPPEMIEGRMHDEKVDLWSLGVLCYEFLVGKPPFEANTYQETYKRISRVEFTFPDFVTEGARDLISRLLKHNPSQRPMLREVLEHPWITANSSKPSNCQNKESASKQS
In words: Aurora A inhibitory action (Kemptide substrate, [γ-33P]ATP, 20 μM ATP). It counts as biochemical. The conditions noted are these: 30° C., 20 minutes. The text has this: cDNA of Aurora A having histidine tag fused at the amino terminal was integrated into an expression vector, which was then highly expressed in Escherichia coli BL21-CodonPlus (DE3)-RIL cells. The Escherichia coli cells were recovered and solubilized, and then the histidine-tagged Aurora A protein was adsorbed onto a nickel chelate column and eluted from the column with imidazole. The active fraction was desalted with a desalting column to give a pure enzyme.
For measurement of the activity of Aurora A, the substrate used was Kemptide (Leu-Arg-Arg-Ala-Ser-Leu-Gly) (SEQ.ID.NO.: 1), a synthetic peptide purchased from Sigma-Aldrich, Inc. [Certificate of analysis (Upstate, Inc.)].
Reaction was conducted by a partial modification of a method by Upstate, Inc. [Kinase Profiler™ Assay Protocols]. The amount of the reaction liquid was 21.1 μL, and the composition of the reaction buffer (R2 buffer) was 50 mM Tris-hydrochloride buffer (pH 7.4)/15 mM magnesium acetate/0.2 mM ethylenediamine-N,N,N′,N′-tetraacetate (EDTA). To this, purified Aurora A, 100 μM of a substrate peptide, 20 μM of unlabeled adenosine triphosphate (ATP) and 0.5 μCi of [γ-^33P] labeled ATP (2,500 Ci/mmole or more) were added, and the mixture was reacted at 30° C. for 20 minutes. Then, 10 μL of 350 mM phosphate buffer was added to the reaction system to stop the reaction. The substrate peptide was adsorbed on a P81 paper filter 96-well plate and then washed with 130 mM phosphate buffer for several times. The radiation activity of the peptide was measured with a liquid scintillation counter. The [γ-^33P] labeled ATP was purchased from Amersham Biosciences Co., Ltd.
(§1) The compound to be tested was added to the reaction system such that a dilution series of the compound in dimethylsulfoxide was first prepared, and 1.1 μL of this solution was added. A control was provided by adding 1.1 μL of DMSO to the reaction system.

Assay [1] relates to Human cervical cancer cells (HeLa S3). Kind of assay: Cell growth inhibitory effect, WST-8 method. The conditions noted are these: 72 h, HeLa S3, three days incubation. It counts as cell-based. Here is the method:
Fetal calf serum (FCS) was purchased from Moregate Biotech, and DMEM medium was purchased from Invitrogen Corp. WST-8 was purchased from Kishida Chemical Co., Ltd.
(§2) Human cervical cancer cells (HeLa S3) were obtained from the American Type Culture Collection (ATCC).
Cells were suspended in a DMEM medium containing 10% FCS, and the cell suspension was dispensed to a 96-well plastic plate at a rate of 750 cells/100 microliters per well. The plate was incubated overnight in 5% CO2-95% air at 37° C. A drug was subjected to graded dilution in dimethylsulfoxide and further diluted with a DMEM medium containing 10% FCS. Then, the dilution was dispensed to the plate on which cells had been disseminated, at a rate of 100 microliters per well. The plate was incubated for further three days in 5% CO2-95% air at 37° C. Cell growth after incubation was measured by the WST-8 method (H. Tominaga, et al., Anal. Commun., 36, 47-50 (1999)). Here, the WST-8 method refers to a method in which 20 microliters of a WST-8 reagent solution is added to each well, incubation is conducted at 37° C. for 45 minutes, the plate is stirred, and the amount of formazan produced is measured by a calorimetric method to determine the inhibitory rate of the drug. The concentration for 50% growth inhibition (EC50, μM) of the compound was determined.

For assay [2] the test system is unchanged. In words: Effect by combined use with paclitaxel in cells, WST-8 method. It counts as cell-based. The conditions noted are these: three days, DMSO = 0%. Here is the method:
Fetal calf serum (FCS) was purchased from Moregate Biotech, DMEM medium from Invitrogen Corp., paclitaxel (tradename: Taxol) from Sigma-Aldrich, Inc., and WST-8 from Kishida Chemical Co., Ltd.
as §2
Cells were suspended in a DMEM medium containing 10% FCS, and the cell suspension was dispensed to two 96-well plastic plates at a rate of 750 cells/100 microliters per well. The plates were incubated overnight in 5% CO2-95% air at 37° C. A drug was subjected to graded dilution in dimethylsulfoxide and further diluted with […] a DMEM medium containing 10% FCS and also containing 2 nM paclitaxel. Then, the dilutions were each dispensed to one of the plates on which cells had been disseminated, at a rate of 100 microliters per well. The final concentration of paclitaxel at this stage was 1 nM. Also, the concentrations in the case of sole administration of the compound according to the invention were 0.03, 0.1, 0.3, 1 and 3 μM. The plates were incubated for further three days in 5% CO2-95% air at 37° C. Cell growth after incubation was measured by the WST-8 method (H. Tominaga, et al., Anal. Commun., 36, 47-50 (1999)). Here, the WST-8 method refers to a method in which 20 microliters of a WST-8 reagent solution is added to each well, incubation is conducted at 37° C. for 45 minutes, the plate is stirred, and the amount of formazan produced is measured by a colorimetric method to determine the inhibitory rate of the drug. The growth inhibitory effects of paclitaxel and of the compound according to the invention were determined, with the value obtained in sole treatment of DMSO being defined as 0%.

The next assay addresses T2, Aurora B (Homo sapiens, UniProt Q96GD4).
T2 construct: histidine tag (N); made in house; host or cells: Escherichia coli BL21-CodonPlus (DE3)-RIL
Kind of assay: Aurora B inhibitory action (Kemptide substrate, [γ-33P]ATP, 100 μM ATP). It counts as biochemical. The following applies: 30° C., 20 minutes.
Source text: cDNA of Aurora B having histidine tag fused at the amino terminal was integrated into an expression vector, which was then highly expressed in Escherichia coli BL21-CodonPlus (DE3)-RIL cells. The Escherichia coli cells were recovered and solubilized, and then the histidine-tagged Aurora A protein was adsorbed onto a nickel chelate column and eluted from the column with imidazole. The active fraction was desalted with a desalting column to give a pure enzyme.
For measurement of the activity of Aurora B, the substrate used was Kemptide (Leu-Arg-Arg-Ala-Ser-Leu-Gly) (SEQ.ID.NO.: 1), a synthetic peptide purchased from Sigma-Aldrich, Inc. [Certificate of analysis (Upstate, Inc.)].
Reaction was conducted by a partial modification of the method of activity measurement for Aurora A. The amount of the reaction liquid was 21.1 μL, and the composition of the reaction buffer (R2 buffer) was 50 mM Tris-hydrochloride buffer (pH 7.4)/15 mM magnesium acetate/0.2 mM ethylenediamine-N,N,N′,N′-tetraacetate (EDTA). To this, purified Aurora B, 100 μM of a substrate peptide, 100 μM of unlabeled adenosine triphosphate (ATP) and 1 μCi of [γ-^33P] labeled ATP (2,500 Ci/mmole or more) were added, and the mixture was reacted at 30° C. for 20 minutes. Then, 10 μL of 350 mM phosphate buffer was added to the reaction system to stop the reaction. The substrate peptide was adsorbed on a P81 paper filter 96-well plate and then washed with 130 mM phosphate buffer for several times. The radiation activity of the peptide was measured with a liquid scintillation counter. The [γ-^33P] labeled ATP was purchased from Amersham Biosciences Co., Ltd.
as §1

T2 sequence (Q96GD4 whole entry): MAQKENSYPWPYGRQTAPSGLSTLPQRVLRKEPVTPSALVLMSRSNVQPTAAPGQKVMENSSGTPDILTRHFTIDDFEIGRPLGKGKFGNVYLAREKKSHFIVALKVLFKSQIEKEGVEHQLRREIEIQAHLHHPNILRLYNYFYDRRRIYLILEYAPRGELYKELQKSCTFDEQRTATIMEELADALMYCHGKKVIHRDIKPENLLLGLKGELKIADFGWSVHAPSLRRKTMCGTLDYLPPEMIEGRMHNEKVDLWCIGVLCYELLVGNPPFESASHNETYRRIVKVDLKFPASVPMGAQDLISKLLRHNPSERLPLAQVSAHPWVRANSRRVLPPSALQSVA

`CN(C)C(=O)c1cc(CN2C[C@@H]3C[C@H]2CN3C(=O)c2cccc(Cl)c2F)nc(Nc2nccs2)c1` [Example 21, 2-(((1S,4S)-5-(3-chloro-2-fluorobenzoyl)-2,5-diazabicyclo[2.2.1]hept-2-yl)methyl)-N,N-dimethyl-6-(1,3-thiazol-2-ylamino)isonicotinamide]: the IC50 – broadly, the point on the concentration scale where inhibition reaches its midpoint – is 1.3 nM at Aurora A, 670 nM in assay [1] and 260 nM at Aurora B. Besides, the “Cell growth inhibitory effect by combined administration of paclitaxel and the compound of Example (%)” value in assay [2] (HeLa S3, compound 0.1 μM + paclitaxel 1 nM) was 81.3%. Further, the inhibition at 0.1 µM in assay [2] (Homo sapiens, HeLa S3, 72 h, HeLa S3, compound 0.1 μM alone, read-out: Cell growth inhibitory effect by sole administration of the compound of Example (%)) was 14.9%.
